The source made the active and inactive calls.

By EC50 is commonly meant the midpoint of the concentration-response curve. As usually defined, the AC50 is the concentration at which the activity in the assay is half-maximal. In general, IC50 refers to the point on the concentration scale where inhibition reaches its midpoint.

In test [1] the target is T1, Zinc finger protein mex-5 (Caenorhabditis elegans, UniProt Q9XUB2).
T1 sequence (Q9XUB2 whole entry): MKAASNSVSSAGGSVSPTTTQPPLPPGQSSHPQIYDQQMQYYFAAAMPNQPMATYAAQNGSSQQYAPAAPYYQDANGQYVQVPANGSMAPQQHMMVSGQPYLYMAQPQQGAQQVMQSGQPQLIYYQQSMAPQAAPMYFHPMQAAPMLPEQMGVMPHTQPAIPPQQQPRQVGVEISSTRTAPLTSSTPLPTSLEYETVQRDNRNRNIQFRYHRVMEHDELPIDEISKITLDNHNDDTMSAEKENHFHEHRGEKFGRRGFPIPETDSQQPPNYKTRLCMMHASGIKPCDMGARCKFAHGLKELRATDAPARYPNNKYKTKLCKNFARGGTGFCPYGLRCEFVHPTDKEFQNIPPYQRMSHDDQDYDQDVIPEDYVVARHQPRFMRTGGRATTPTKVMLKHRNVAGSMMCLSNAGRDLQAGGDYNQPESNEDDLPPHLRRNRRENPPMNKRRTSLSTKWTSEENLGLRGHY
The test is described as follows: MEX-5/TCR-2 RNA interaction inhibitors, dose response, biochemical, C. elegans, fluorescence polarization (AID 1960). For orientation: In fluorescence polarisation assays a small probe gives low polarisation when free and higher when bound to something large.

The test system of test [2] is HEK293. The test is described as follows: inhibitors of LMP1-driven NF-kB reporter, dose response, cell-based, HEK293, luciferase, cherry-pick (AID 588343). In kind it is functional. The following applies: Homo sapiens.
Test [3] concerns the target T2, Sentrin-specific protease 6 (Homo sapiens, UniProt Q9GZR1).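 Note: Luminescence-based dose-response confirmatory assay of SENP6 inhibition, following up an ultra-high-throughput screen.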
T2 sequence (Q9GZR1 whole entry): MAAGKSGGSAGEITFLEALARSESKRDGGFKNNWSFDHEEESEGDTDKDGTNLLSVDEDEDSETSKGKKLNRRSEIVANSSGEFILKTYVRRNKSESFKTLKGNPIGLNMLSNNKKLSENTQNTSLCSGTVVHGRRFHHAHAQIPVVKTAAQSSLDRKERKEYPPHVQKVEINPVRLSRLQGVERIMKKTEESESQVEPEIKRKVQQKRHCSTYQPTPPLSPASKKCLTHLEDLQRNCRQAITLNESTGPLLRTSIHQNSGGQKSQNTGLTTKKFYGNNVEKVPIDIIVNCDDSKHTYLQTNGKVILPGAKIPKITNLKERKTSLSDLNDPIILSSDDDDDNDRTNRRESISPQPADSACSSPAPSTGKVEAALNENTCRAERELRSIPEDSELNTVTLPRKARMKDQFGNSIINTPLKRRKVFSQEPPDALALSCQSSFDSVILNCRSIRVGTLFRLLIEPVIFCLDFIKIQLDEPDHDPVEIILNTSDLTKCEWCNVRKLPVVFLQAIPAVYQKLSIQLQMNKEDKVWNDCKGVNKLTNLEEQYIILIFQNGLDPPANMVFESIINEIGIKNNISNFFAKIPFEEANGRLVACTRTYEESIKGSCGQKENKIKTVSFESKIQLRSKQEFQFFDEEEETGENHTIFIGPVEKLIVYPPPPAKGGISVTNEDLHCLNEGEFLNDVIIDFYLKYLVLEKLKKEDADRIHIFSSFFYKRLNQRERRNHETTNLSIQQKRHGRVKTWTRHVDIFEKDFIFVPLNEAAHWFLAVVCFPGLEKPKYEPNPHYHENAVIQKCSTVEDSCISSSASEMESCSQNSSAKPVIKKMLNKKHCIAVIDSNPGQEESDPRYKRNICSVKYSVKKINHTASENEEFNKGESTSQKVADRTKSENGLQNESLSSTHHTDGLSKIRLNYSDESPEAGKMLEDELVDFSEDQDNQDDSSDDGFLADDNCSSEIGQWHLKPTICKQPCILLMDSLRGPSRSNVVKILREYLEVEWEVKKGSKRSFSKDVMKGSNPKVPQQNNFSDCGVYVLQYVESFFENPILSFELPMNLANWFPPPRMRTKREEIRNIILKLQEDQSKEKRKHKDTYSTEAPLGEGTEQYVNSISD
In kind it is functional.

The target of test [4] is Beta-galactosidase (Escherichia coli, UniProt Q8VNN2). Put plainly: beta-galactosidase enzyme inhibitors and activators, dose response, artefact control for CCR6 antagonist project, biochemical, E. coli enzyme, set 3 (AID 504712). The test is classed as functional.
Test [5] can be described thus: Fluorescence-based cell-based high throughput dose response assay for inhibitors of the interaction of nucleotide-binding oligomerization domain containing 2 (NOD2) and the receptor-interacting serine-threonine kinase 2 (RIPK2). In kind it is functional, Homo sapiens. The following applies: Homo sapiens.
In test [6] the target is T3, Sphingosine 1-phosphate receptor 4 (Homo sapiens, UniProt O95977).
T3 sequence (O95977 whole entry): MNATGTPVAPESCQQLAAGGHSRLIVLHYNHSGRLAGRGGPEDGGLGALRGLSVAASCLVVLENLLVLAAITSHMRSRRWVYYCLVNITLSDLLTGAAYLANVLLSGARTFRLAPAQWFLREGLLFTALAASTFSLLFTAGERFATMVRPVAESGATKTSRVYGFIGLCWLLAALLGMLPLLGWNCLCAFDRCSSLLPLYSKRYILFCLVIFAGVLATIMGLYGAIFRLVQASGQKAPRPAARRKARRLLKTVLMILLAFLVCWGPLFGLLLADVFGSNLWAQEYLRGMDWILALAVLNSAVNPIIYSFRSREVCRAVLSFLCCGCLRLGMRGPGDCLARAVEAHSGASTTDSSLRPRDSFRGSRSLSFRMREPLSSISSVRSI
Put plainly: Fluorescence dose response cell-based high throughput screening assay for antagonists of the Sphingosine 1-Phosphate Receptor 4 (S1P4). [Related pubchem assays: 1524 (Confirmation in triplicates.), 1510 (Primary screen.)]. The test is classed as functional.

The target of test [7] is Fatty acid synthase (Homo sapiens, UniProt P49327). The test is described as follows: FAS thioesterase domain inhibitors, dose response, biochemical, kinetic fluorescence intensity (AID 624326).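 Note: rate of fluorescence rise from hydrolysis of a fluorogenic O-methyl fluorescein ester substrate.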 In kind it is functional.
Chain of Fatty acid synthase (P49327 whole entry, the tested form may be a part): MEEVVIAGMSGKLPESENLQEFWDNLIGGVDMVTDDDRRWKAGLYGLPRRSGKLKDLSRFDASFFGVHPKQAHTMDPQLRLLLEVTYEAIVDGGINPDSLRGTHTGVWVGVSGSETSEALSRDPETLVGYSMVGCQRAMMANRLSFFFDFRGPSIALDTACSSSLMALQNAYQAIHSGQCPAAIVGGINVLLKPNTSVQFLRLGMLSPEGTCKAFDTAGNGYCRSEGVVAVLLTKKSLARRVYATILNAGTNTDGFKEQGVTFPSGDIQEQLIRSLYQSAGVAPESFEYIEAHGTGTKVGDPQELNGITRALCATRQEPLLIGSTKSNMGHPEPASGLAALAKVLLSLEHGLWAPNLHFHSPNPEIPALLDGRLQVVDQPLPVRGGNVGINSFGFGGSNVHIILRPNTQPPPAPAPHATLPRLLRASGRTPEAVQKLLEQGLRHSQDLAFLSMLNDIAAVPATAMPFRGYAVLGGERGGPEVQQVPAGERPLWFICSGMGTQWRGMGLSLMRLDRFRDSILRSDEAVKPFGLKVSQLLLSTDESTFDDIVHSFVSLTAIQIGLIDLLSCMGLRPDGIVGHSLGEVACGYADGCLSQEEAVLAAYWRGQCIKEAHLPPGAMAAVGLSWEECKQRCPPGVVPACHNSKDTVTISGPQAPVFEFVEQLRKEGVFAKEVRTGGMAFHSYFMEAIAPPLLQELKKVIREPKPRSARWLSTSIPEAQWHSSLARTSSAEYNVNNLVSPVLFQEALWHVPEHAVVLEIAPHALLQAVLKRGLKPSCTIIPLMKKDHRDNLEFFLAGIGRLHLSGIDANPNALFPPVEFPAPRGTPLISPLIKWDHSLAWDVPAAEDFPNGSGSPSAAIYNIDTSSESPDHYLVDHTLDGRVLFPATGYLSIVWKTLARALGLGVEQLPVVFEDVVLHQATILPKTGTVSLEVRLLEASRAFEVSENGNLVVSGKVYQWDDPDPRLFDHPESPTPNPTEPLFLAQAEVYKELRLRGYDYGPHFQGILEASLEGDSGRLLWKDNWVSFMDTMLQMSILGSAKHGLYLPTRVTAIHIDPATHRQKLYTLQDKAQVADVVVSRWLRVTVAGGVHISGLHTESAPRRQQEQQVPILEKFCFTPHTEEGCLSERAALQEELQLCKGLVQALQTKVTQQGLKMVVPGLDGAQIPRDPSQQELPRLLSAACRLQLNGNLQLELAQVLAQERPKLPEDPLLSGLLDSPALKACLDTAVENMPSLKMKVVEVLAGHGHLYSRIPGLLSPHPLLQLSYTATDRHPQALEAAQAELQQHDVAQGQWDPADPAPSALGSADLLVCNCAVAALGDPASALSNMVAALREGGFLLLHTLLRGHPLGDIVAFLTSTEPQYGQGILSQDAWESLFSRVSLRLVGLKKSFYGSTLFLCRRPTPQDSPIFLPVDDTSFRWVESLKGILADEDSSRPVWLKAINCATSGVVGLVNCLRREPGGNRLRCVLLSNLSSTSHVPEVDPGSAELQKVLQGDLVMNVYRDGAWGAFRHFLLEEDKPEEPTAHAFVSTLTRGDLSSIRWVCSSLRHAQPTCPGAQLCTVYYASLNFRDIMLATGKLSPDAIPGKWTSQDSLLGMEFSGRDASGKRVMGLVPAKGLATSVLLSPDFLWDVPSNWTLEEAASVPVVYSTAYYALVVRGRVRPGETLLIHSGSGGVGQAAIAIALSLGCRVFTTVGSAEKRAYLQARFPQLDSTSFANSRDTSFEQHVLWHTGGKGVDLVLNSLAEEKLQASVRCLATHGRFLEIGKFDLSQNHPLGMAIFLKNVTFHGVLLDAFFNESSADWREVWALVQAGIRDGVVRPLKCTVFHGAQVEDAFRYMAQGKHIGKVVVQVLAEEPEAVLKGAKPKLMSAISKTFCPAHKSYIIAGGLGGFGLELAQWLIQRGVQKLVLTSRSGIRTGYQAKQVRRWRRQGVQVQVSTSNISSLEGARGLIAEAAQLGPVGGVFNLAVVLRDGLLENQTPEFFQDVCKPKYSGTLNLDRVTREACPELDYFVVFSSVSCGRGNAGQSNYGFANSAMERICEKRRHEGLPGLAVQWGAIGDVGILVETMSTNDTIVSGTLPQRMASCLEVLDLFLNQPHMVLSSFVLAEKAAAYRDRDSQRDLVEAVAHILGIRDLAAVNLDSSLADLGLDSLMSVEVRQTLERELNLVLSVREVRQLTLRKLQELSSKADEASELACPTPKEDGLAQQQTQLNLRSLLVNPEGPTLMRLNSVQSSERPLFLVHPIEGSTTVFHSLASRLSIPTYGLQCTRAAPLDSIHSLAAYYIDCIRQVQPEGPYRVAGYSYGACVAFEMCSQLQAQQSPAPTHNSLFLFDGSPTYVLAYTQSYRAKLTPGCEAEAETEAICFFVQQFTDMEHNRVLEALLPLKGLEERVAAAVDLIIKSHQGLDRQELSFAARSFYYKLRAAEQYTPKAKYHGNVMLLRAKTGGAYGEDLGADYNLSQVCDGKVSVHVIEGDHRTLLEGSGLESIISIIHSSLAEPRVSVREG

Chain of Beta-galactosidase (Q8VNN2 whole entry, the tested form may be a part): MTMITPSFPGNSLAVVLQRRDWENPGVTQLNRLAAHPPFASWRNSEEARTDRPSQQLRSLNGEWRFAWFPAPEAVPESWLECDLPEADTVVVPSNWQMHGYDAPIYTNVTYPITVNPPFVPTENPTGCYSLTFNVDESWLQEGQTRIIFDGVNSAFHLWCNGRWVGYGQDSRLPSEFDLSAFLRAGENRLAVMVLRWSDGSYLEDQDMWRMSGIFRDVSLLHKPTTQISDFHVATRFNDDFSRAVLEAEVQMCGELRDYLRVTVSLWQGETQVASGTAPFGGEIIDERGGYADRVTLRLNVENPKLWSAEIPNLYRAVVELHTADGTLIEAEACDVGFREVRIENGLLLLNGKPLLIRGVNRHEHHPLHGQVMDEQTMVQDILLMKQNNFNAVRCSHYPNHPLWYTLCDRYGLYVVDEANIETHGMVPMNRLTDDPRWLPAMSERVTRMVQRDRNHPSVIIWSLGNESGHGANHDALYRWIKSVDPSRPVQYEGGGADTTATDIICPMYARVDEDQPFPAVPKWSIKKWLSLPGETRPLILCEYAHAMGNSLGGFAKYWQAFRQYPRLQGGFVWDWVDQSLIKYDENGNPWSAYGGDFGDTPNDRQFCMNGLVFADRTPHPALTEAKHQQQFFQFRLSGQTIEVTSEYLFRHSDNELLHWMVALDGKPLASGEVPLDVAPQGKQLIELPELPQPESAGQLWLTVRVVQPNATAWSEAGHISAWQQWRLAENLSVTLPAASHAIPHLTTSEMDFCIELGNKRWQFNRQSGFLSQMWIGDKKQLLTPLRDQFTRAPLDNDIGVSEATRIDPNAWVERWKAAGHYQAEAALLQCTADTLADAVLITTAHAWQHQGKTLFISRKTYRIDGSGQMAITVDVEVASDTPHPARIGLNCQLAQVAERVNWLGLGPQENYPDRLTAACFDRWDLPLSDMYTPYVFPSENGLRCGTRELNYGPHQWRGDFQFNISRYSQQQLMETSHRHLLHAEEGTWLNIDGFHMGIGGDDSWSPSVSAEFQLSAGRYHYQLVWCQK

As to `O=C(O)CSc1cc(NS(=O)(=O)c2ccc(Br)cc2)c2ccccc2c1O`, in test [1], the EC50 is 8.17 µM (active).
With `O=C(CC(O)(C(F)(F)F)C(F)(F)F)Nc1ccc(Cl)c(Cl)c1`, the AC50 in test [2] is 1.34 µM (active).
`O=C1NC(=S)N/C1=C/c1cc2c(cc1[N+](=O)[O-])OCO2`: in test [3], the IC50 was 14.1 µM (active).
Regarding `Cc1ccc(NC(=O)C2=C(c3ccccc3)S(=O)(=O)CCS2(=O)=O)cc1`, the IC50 in test [4] is > 66.6 µM (inactive); in test [5] it was 2.73 µM (active); in test [6] it was 1.04 µM (active); in test [7] it was 1.61 µM (active).
